In paper PMC6946680, “Modulation of brain cation-Cl^− cotransport via the SPAK kinase inhibitor ZT-1a” (Nature Communications, 2020):
Where “and” joins values, the source holds several entries; their conditions need not be identical. Equal entries are not always repeated. Entries after “also recorded” stand apart in the source; their conditions may differ.

Columns and labels:
[1] = test system: mouse model of ischemic stroke (tMCAO); assay: Infarct volume and hemispheric swelling (TTC) 24 h after tMCAO; assay type: in vivo
mice = details: mouse, in vivo
Description: Post-stroke administration of Closantel in mice reduced ischemic cerebral infarction size and brain swelling in a dose-dependent manner. However, we detected Closantel toxicity in mice at higher doses (~25 mg/kg), consistent with reported adverse effects in humans, including weakness, visual impairment, and blindness[72],[73]. The in vitro nanomolar-potency pan-WNK-kinase inhibitor WNK463 was developed as an antihypertensive drug[74]. […] Although the causes of these adverse effects remain unclear, they also discouraged efficacy testing of WNK463 at higher doses.

NKCC1 = assay: 86Rb+ uptake assay for NKCC1 activity in HEK-293 cells; assay type: cell-based; design: key to 86Rb+ uptake: 86Rb+ uptake in CPM per mg protein; details: for 86Rb+ uptake: Fig 3b, NKCC1 + Bum (0.1 mM), replicates, listed as Bum
Description: (§1) Thirty-six hours post transfection, cells were exposed for 30 min to either control isotonic conditions or hypotonic low [Cl^−] conditions (to activate the SPAK/OSR1 pathway), and then treated for an additional 30 min in the same conditions with the indicated ZT-1a concentrations in the presence of 1 mM ouabain and 0.1 mM bumetanide. Ten-minute ^86Rb^+ uptake values were quantified by scintillation counting, normalized per mg protein for each condition, and plotted for both isotonic and hypotonic conditions. ***p < 0.001; **p < 0.01; *p < 0.05; ns—nonsignificant [by one-way ANOVA with post hoc testing (n = 6, error bars represent the mean ± SEM)]. b ^86Rb^+ uptake assays in the presence of ZT-1a measure transport activity of NKCC1. […] Thirty-six hours post transfection, cells were exposed for 30 min to either control isotonic conditions or hypotonic low [Cl^−] conditions (to activate the SPAK/OSR1 pathway), and then treated in the same conditions for an additional 30 min with 10 µM ZT-1a or 0.1 mM bumetanide (Bum) in the presence of 1 mM ouabain (Na^+/K^+-ATPase inhibitor). ^86Rb^+ uptake was allowed to proceed for 10 min and was then quantified by scintillation counting. ^86Rb^+ uptake CPMs were normalized per mg protein and plotted for both isotonic and hypotonic conditions. […] Thirty-six hours post transfection, cells were exposed for 30 min to either control isotonic conditions or hypotonic low [Cl^−] conditions (to activate the SPAK/OSR1 pathway), and then treated for an additional 30 min in the same conditions with the indicated ZT-1a concentrations in the presence of 1 mM ouabain. Ten-minute ^86Rb^+ uptake values were quantified by scintillation counting, normalized per mg protein for each condition, and plotted for both isotonic and hypotonic conditions. ***p < 0.001; **p < 0.01; *p < 0.05; ns—nonsignificant [by one-way ANOVA with post hoc testing (n = 6, error bars represent the mean ± SEM)].
(§2) This stimulating medium was then removed and replaced with isotonic medium containing inhibitors plus 2 µCi/ml ^86Rb^+. After incubation for 10 min at 37 °C, cells were rapidly washed three times with the respective ice-cold nonradioactive medium. Washed cells were lysed in 300 µl of ice-cold lysis buffer and ^86Rb^+ uptake was quantitated by liquid scintillation counting (PerkinElmer).

HEK-293 cells = assay: 86Rb+ uptake assay in empty-vector-transfected HEK-293 cells; assay type: cell-based, human; design: key: 86Rb+ uptake in CPM per mg protein; details: Fig 3b, Empty V + Bum (0.1 mM), ouabain, replicates, listed as Bum
Description: as §1, §2

human fibroblast cells = assay: Cell volume measurement (calcein-AM) under hyperosmotic stress, human fibroblasts; details: hypertonic 515 mOsm; BMT or ZT-1a
[2] = test system: mouse primary cortical neurons; assay: Cell volume measurement (calcein-AM) under hyperosmotic stress, primary cortical neurons

SMILES: CC(C)(C)NC(=O)c1cncn1C1CCN(c2ccc(-c3nnc(C(F)(F)F)o3)cn2)CC1 [WNK463]
- Infarct volume (mm3) ([1]; Fig 9b, group WNK463, individual mice): 59.9 mm3 and 47.6 mm3 and 101.01 mm3 and 100.21 mm3
- Hemisphere swelling (%) ([1]; Fig 9c, group WNK463, individual mice): 22.63% and 14.43% and 26.7% and 16.53%
- infarct volume and hemispheric swelling (neuroprotection) ([1]; WNK463 2.5 mg/kg, 24 h post reperfusion, 2.5 mg/kg): reduced neither infarct volume nor hemispheric swelling; also recorded: not neuroprotective
- adverse effects in mice (mice): ataxia and breathing difficulties

SMILES: CCCCNc1cc(C(=O)O)cc(S(N)(=O)=O)c1Oc1ccccc1 [bumetanide, reference compound]
- K+ flux of cells transfected with empty vector or NKCC1 wt cDNA (NKCC1; 0.1 mM bumetanide, isotonic or hypotonic low Cl−): significantly decreased K^+ flux
- 86Rb+ uptake (NKCC1; Hypotonic low Cl-): 9502.3 and 11310.4 and 9641.4 and 10421.5 and 10765.4 and 9047.7
- 86Rb+ uptake (NKCC1; Isotonic control): 1674.6 and 1506.3 and 1758.1 and 1840.4 and 1694.7 and 1729.5
- 86Rb+ uptake (HEK-293 cells; Hypotonic low Cl-): 1107.6 and 1237.8 and 1137.4 and 1021.4 and 1200.9 and 1076.2
- 86Rb+ uptake (HEK-293 cells; Isotonic control): 803.5 and 942.1 and 914.8 and 786.4 and 978.4 and 901.5
- regulatory volume increase (RVI) in human fibroblast cells (human fibroblast cells): absence of RVI
- Cell water (relative change) ([2]; Fig 5b trace, Time 1.00403): 0.9843 relative change
- Cell water (relative change) ([2]; Fig 5b trace, Time 2.00427): 1.007 relative change
- Cell water (relative change) ([2]; Fig 5b trace, Time 3.00425): 1.002 relative change
- Cell water (relative change) ([2]; Fig 5b trace, Time 4.00423): 1.004 relative change
- Cell water (relative change) ([2]; Fig 5b trace, Time 5.0042): 1.002 relative change
- Cell water (relative change) ([2]; Fig 5b trace, Time 6.00445): 0.7352 relative change
- Cell water (relative change) ([2]; Fig 5b trace, Time 7.00442): 0.6913 relative change
- Cell water (relative change) ([2]; Fig 5b trace, Time 8.00435): 0.6745 relative change
- Cell water (relative change) ([2]; Fig 5b trace, Time 9.00452): 0.6038 relative change
- Cell water (relative change) ([2]; Fig 5b trace, Time 10.0046): 0.5839 relative change
- Cell water (relative change) ([2]; Fig 5b trace, Time 11.0045): 0.5893 relative change
- Cell water (relative change) ([2]; Fig 5b trace, Time 12.0045): 0.5422 relative change
- Cell water (relative change) ([2]; Fig 5b trace, Time 13.0045): 0.523 relative change
- Cell water (relative change) ([2]; Fig 5b trace, Time 14.0045): 0.4977 relative change
- Cell water (relative change) ([2]; Fig 5b trace, Time 15.0047): 0.5231 relative change
- Cell water (relative change) ([2]; Fig 5b trace, Time 16.0047): 0.4947 relative change
- Cell water (relative change) ([2]; Fig 5b trace, Time 17.0047): 0.4924 relative change
- Cell water (relative change) ([2]; Fig 5b trace, Time 18.0047): 0.4545 relative change
- Cell water (relative change) ([2]; Fig 5b trace, Time 19.0049): 0.4799 relative change
- Cell water (relative change) ([2]; Fig 5b trace, Time 20.0049): 0.4586 relative change
- Cell water (relative change) ([2]; Fig 5b trace, Time 21.0048): 0.4488 relative change
- Cell water (relative change) ([2]; Fig 5b trace, Time 22.0048): 0.4846 relative change
- Cell water (relative change) ([2]; Fig 5b trace, Time 23.005): 0.4766 relative change
- Cell water (relative change) ([2]; Fig 5b trace, Time 24.0048): 0.4819 relative change
- Cell water (relative change) ([2]; Fig 5b trace, Time 25.005): 0.4751 relative change
- Cell water (relative change) ([2]; Fig 5b trace, Time 26.0053): 0.6008 relative change
- Cell water (relative change) ([2]; Fig 5b trace, Time 27.005): 0.6725 relative change
- Cell water (relative change) ([2]; Fig 5b trace, Time 28.005): 0.7341 relative change
- Cell water (relative change) ([2]; Fig 5b trace, Time 29.0051): 0.8379 relative change
- Cell water (relative change) ([2]; Fig 5b trace, Time 30.005): 0.9275 relative change
- Cell water (relative change) ([2]; Fig 5b trace, Time 31.005): 0.981 relative change
- Cell water (relative change) ([2]; Fig 5b trace, Time 32.005): 1.048 relative change
- Cell water (relative change) ([2]; Fig 5b trace, Time 33.0052): 1.114 relative change
- Cell water (relative change) ([2]; Fig 5b trace, Time 34.0052): 1.157 relative change
- Cell water (relative change) ([2]; Fig 5b trace, Time 35.0052): 1.203 relative change
- Cell water (relative change) ([2]; Time 1.0036): 0.9714
- Cell water (relative change) ([2]; Time 2.0038): 1.0042
- Cell water (relative change) ([2]; Time 3.0038): 1.0139
- Cell water (relative change) ([2]; Time 4.0037): 0.9906
- Cell water (relative change) ([2]; Time 5.0037): 1.0199
- Cell water (relative change) ([2]; Time 6.0037): 0.4476
- Cell water (relative change) ([2]; Time 7.0039): 0.4233
- Cell water (relative change) ([2]; Time 8.0040): 0.4625
- Cell water (relative change) ([2]; Time 9.0042): 0.4683
- Cell water (relative change) ([2]; Time 10.0039): 0.4401
- Cell water (relative change) ([2]; Time 11.0039): 0.4457
- Cell water (relative change) ([2]; Time 12.0039): 0.4507
- Cell water (relative change) ([2]; Time 13.0041): 0.4223
- Cell water (relative change) ([2]; Time 14.0041): 0.4334
- Cell water (relative change) ([2]; Time 15.0040): 0.4490
- Cell water (relative change) ([2]; Time 16.0040): 0.4184
- Cell water (relative change) ([2]; Time 17.0040): 0.3961
- Cell water (relative change) ([2]; Time 18.0045): 0.4241
- Cell water (relative change) ([2]; Time 19.0042): 0.4174
- Cell water (relative change) ([2]; Time 20.0042): 0.4139
- Cell water (relative change) ([2]; Time 21.0042): 0.4233
- Cell water (relative change) ([2]; Time 22.0041): 0.4177
- Cell water (relative change) ([2]; Time 23.0044): 0.4195
- Cell water (relative change) ([2]; Time 24.0044): 0.4281
- Cell water (relative change) ([2]; Time 25.0043): 0.4058
- Cell water (relative change) ([2]; Time 26.0043): 0.5463
- Cell water (relative change) ([2]; Time 27.0043): 0.6294
- Cell water (relative change) ([2]; Time 28.0045): 0.7254
- Cell water (relative change) ([2]; Time 29.0044): 0.8393
- Cell water (relative change) ([2]; Time 30.0044): 0.8966
- Cell water (relative change) ([2]; Time 31.0046): 1.0008
- Cell water (relative change) ([2]; Time 32.0046): 1.0678
- Cell water (relative change) ([2]; Time 33.0046): 1.1243
- Cell water (relative change) ([2]; Time 34.0045): 1.1834
- Cell water (relative change) ([2]; Time 35.0045): 1.2456
- regulatory volume increase (RVI) response of primary cortical neurons ([2]; hyperosmotic stress 370 mOsm, ZT-1a 3 μM, BMT 10 μM): no RVI response
- cell shrinkage of primary cortical neurons ([2]; hypertonic 370 mOsm/kg H2O, earlier manuscript version quoted in peer-review file): 86%
- initial rate of cell shrinkage ([2]; hypertonic stress, earlier manuscript version quoted in peer-review file): 45 ± 4 % vol/min
- neurons exhibiting RVI / cells analysed ([2]; hypertonicity-mediated osmotic shrinkage, three cultures): 0/46
